Reference: patent publication US9650415B2, “Uric acid-lowering agent” (Suntory Holdings Limited, priority 2014, dated 2017)

Key:
[1] = tested on: hyperuricemic mice; experiment: action of lowering serum uric acid levels for hyperuricemic mice (potassium oxonate model); type: in vivo, BALBc mice; conditions: FIG. 2
Experimental: As to the animals used, male 7-week old BALBc mice were purchased from CLEA Japan, Inc., and subjected to an experiment after a one-week period of conditioning. The animals were bred in a breeding room with air-conditioning facilities (temperature: 23.5°±1.0° C., humidity: 55±10 RH %, the number of ventilation: 12 to 15 times/hour, illuminated: from 7:00 to 19:00 each day). During the period of conditioning, the mice were allowed to take a commercially available feed (CE-2, manufactured by CLEA Japan, Inc.) and distilled water ad libitum.
Oxonic acid is a substance that raises a blood uric acid level by inhibiting a urikase, a metabolic enzyme for uric acid. In view of the above, potassium oxonate (PO) was administered, thereby generating hyperuricemic model animals (see, Planta Med 2009; 75:302-306). […] In all the groups that include PO administration, PO previously suspended in a 0.5% aqueous CMC-Na solution was administered at a concentration of 250 mg/kg, and Normal Group was administered with a 0.5% aqueous CMC-Na solution, each being administered intraperitoneally. […] After 2 hours from the administration with PO, the blood was collected from the abdominal vena cava under anesthesia. After blood removal, the liver was harvested. The collected blood was allowed to stand at room temperature for 45 minutes, and centrifuged at 8,000 rpm for 10 minutes to recover sera. Here, the sera and the liver were preserved at −80° C. until the measurements were carried out.
The serum uric acid level was measured using 7180 Clinical Analyzer (manufactured by Hitachi Technologies).
The actions of lowering serum uric acid levels of soybean peptide heat-treated products were studied using hyperuricemic model animals, in the same manner as in Test Example 2. […] For each of the above-mentioned groups, the administration and the blood collection were carried out in the same manner as in Test Example 2 to measure a serum uric acid level. Here, the mixture of the 8 kinds of cyclic dipeptides prepared by using synthesized products of Cyclo(Ser-Tyr), Cyclo(Tyr-Gly), Cyclo(Tyr-Tyr), Cyclo(Phe-Tyr), Cyclo(Leu-Tyr), Cyclo(Val-Tyr), Cyclo(Ile-Tyr), and Cyclo(Asn-Tyr), in amounts to be contained in the soybean peptide heat-treated product, was used.
The actions of lowering serum uric acid levels of soybean peptide heat-treated products according to dose were studied using hyperuricemic model animals, in the same manner as in Test Example 3. […] For each of the above-mentioned groups, the administration and the blood collection were carried out in the same manner as in Test Example 2 to measure a serum uric acid level.

[2] = target: xanthine oxidase (XO); experiment: in vitro xanthine oxidase (XO) inhibiting action; type: biochemical; conditions: 4 U/L XO in PBS pH 7.5, xanthine substrate, absorbance at 295 nm after 30 minutes; mean±standard error
Experimental: The in vitro xanthine oxidase (XO) inhibiting action was studied on 210 kinds of cyclic dipeptides, linear dipeptides Tyr-Gly and Gly-Tyr, and an amino acid Tyr. […] Thereafter, 20 μL of a 250 μM xanthine solution previously dissolved in the PBS was added thereto, and the absorbance after 30 minutes was measured using a spectrophotometer (Synegy HT, manufactured by Bio Tek). The XO inhibition rate (%) at each concentration was calculated by the following calculation formula, to obtain activities of inhibiting XO (IC50 values). […] [formula] • wherein A: the absorbance of an enzyme-added, sample-non-added group at 295 nm; • B: the absorbance of an enzyme-non-added, sample-non-added group at 295 nm; • C: the absorbance of an enzyme-added, sample-added group at 295 nm; and • D: the absorbance of an enzyme-non-added, sample-added group at 295 nm.

Row | SMILES | IC50 [2] [µM] | also measured
1 | Oc1ncnc2[nH]ncc12 [Allopurinol, reference compound] |  | serum uric acid level, effect versus PO Group ([1]; 1 mg/kg oral): significant difference
2 | NC(=O)CC1NC(=O)C(Cc2ccc(O)cc2)NC1=O (centres unmarked) [Cyclo(Asn-Tyr), cycloasparaginyltyrosine] | 113 ± 11.4 | 
3 | O=C(O)CC1NC(=O)C(Cc2ccc(O)cc2)NC1=O (centres unmarked) [Cyclo(Asp-Tyr), cycloaspartyltyrosine] | 172 ± 13.5 | 
4 | O=C1NC(Cc2ccc(O)cc2)C(=O)NC1Cc1ccccc1 (centres unmarked) [Cyclo(Phe-Tyr), cyclophenylalanyltyrosine] | 22.2 ± 0.8 | 
5 | O=C1CNC(=O)C(Cc2ccc(O)cc2)N1 (centres unmarked) [Cyclo(Tyr-Gly), cyclotyrosylglycine] |  | serum uric acid level, effect versus PO Group ([1]; 30 mg/kg oral): significant difference; serum uric acid level, effect versus PO Group ([1]; 100 mg/kg oral): significant difference; action of lowering serum uric acid level ([1]; Cyclo(Tyr-Gly) 10, 30, 100 mg/kg oral, PO 250 mg/kg i.p.): has an action of lowering a uric acid level in a dose-dependent manner
6 | O=C1NC(Cc2ccc(O)cc2)C(=O)NC1Cc1ccc(O)cc1 (centres unmarked) [Cyclo(Tyr-Tyr), cyclotyrosyltyrosine] | 29.5 ± 2.9 | 
